Source: publication PMC8482815, “Targeting Host Glycolysis as a Strategy for Antimalarial Development” (Frontiers in Cellular and Infection Microbiology, 2021)
Where “and” joins values, the source holds several entries; their conditions need not be identical. Identical values can stand only once.

Test system: human erythrocytes
Assay: Untargeted metabolomics and 13C-glucose tracing of enolase inhibitor treated erythrocytes
Type: cell-based
Settings: 6h
Description: Freshly collected erythrocytes were washed, resuspended to 10% hematocrit in buffer [25mM HEPES (pH 7.4), 120mM NaCl, 5.4mM KCl, 1.8mM CaCl2, and 1mM NaH2PO4], incubated for 1 hour at 37°C, then centrifuged at 2000xg for 5 minutes at 4°C, resuspended in fresh wash buffer to 30-40% hematocrit, and split into 210µL aliquots of packed erythrocytes. […] All samples were incubated at 37°C shaking at 500 RPM. Triplicate samples of supernatants and packed erythrocytes were collected at 0, 0.5, 1, and 6-hour intervals and snap-frozen in liquid N2.
RBC and media samples were extracted at 1:10 and 1:20 dilutions, respectively, in 5:3:2 MeOH : MeCN:H2O v/v/v, and supernatants analyzed on a Thermo Vanquish UHPLC coupled to a Thermo Q Exactive mass spectrometer, as extensively described ([Nemkov et al., 2015]; [Nemkov et al., 2017]). The extraction buffer was supplemented with 40uM 3-^13C lactate to allow absolute quantification of lactate isotopologues, including lactate generated via glycolysis ([1,2,3-^13C3] enriched) vs. the pentose phosphate pathway ([2,3-^13C2] enriched), as described ([Reisz et al., 2016]). Metabolite assignments, peak area integration and isotopologues distributions were determined using Maven (Princeton University) ([Nemkov et al., 2015]; [Nemkov et al., 2017]).
Data were auto-scaled and normalized to zero-hour time points. Metabolites were removed from the dataset if greater than 50% of the samples contained missing values or the relative standard deviation among replicates exceeded 25%. Additionally, data was filtered using the interquartile range to reduce near-constant values from the experiment by 5%.
A principal component analysis of preprocessed data was plotted with the 95% confidence interval minimum volume enclosing ellipsoid for each respective group (MetaboAnalyst, cluster, plotly). A two-way repeated measures analysis of variance (ANOVA) was performed with multiple comparisons corrected for using a false discovery rate p-value cutoff of 0.05. Metabolite-Pathway analysis was performed using the R package of MetaboAnalyst, as previously described ([Xia and Wishart, 2010]). Metabolite-Protein nodal analysis was performed using omicsnet.ca and as previously described ([Zhou and Xia, 2018]).

[1] = treated erythrocytes, one value per replicate sample, polarity +
[2] = treated erythrocytes, one value per replicate sample, polarity -
[3] = treated erythrocytes, replicate samples

Compound: CC(C)(C)C(=O)OCOP(=O)(OCOC(=O)C(C)(C)C)C1CC(O)N(O)C1=O (stereo not shown) [POMSF]
- AMP level (metabolomics signal) (replicate samples): 5.02E+05 and 4.09E+05 and 5.85E+05
- ATP level (metabolomics signal) (replicate samples): 1.58E+04 and 9.84E+04 and 9.63E+04
- Adenine level (metabolomics signal) (replicate samples): 7.75E+04 and 1.23E+05 and 1.12E+05
- Cytosine level (metabolomics signal) (replicate samples): 8.05E+04 and 4.16E+04 and 5.19E+04
- L-alanine level (metabolomics signal) (replicate samples): 8.35E+06 and 9.19E+06 and 8.31E+06
- L-arginine level (metabolomics signal) (replicate samples): 2.95E+06 and 0.00E+00 and 2.67E+06
- L-asparagine level (metabolomics signal) (replicate samples): 5.77E+06 and 5.60E+06 and 5.22E+06
- L-aspartate level (metabolomics signal) (replicate samples): 1.31E+07 and 1.25E+07 and 1.18E+07
- L-cysteine level (metabolomics signal) (replicate samples): 3.97E+05 and 1.14E+05 and 2.20E+05
- L-glutamate level (metabolomics signal) (replicate samples): 7.50E+06 and 6.15E+06 and 6.74E+06
- L-glutamine level (metabolomics signal) (replicate samples): 6.26E+07 and 5.76E+07 and 5.48E+07
- L-histidine level (metabolomics signal) (replicate samples): 1.46E+06 and 1.38E+06 and 1.44E+06
- L-isoleucine level (metabolomics signal) (replicate samples): 1.17E+07 and 1.31E+07 and 1.49E+07
- L-leucine level (metabolomics signal) (replicate samples): 1.27E+08 and 1.58E+08 and 2.15E+08
- L-lysine level (metabolomics signal) (replicate samples): 1.43E+06 and 1.33E+06 and 1.52E+06
- L-methionine level (metabolomics signal) (replicate samples): 1.27E+07 and 1.48E+07 and 1.83E+07
- L-phenylalanine level (metabolomics signal) (replicate samples): 6.89E+06 and 7.47E+06 and 8.39E+06
- L-proline level (metabolomics signal) (replicate samples): 7.25E+07 and 6.63E+07 and 6.78E+07
- L-serine level (metabolomics signal) (replicate samples): 4.64E+06 and 4.68E+06 and 4.28E+06
- L-threonine level (metabolomics signal) (replicate samples): 6.95E+06 and 7.99E+06 and 7.08E+06
- L-tryptophan level (metabolomics signal) (replicate samples): 1.43E+06 and 1.21E+06 and 1.71E+06
- L-tyrosine level (metabolomics signal) (replicate samples): 1.74E+07 and 2.17E+07 and 2.50E+07
- L-valine level (metabolomics signal) (replicate samples): 1.73E+08 (2×) and 1.89E+08
- dCMP level (metabolomics signal) (replicate samples): 0.00E+00 and 1.19E+04 and 1.51E+04
- dTMP level (metabolomics signal) (replicate samples): 2.61E+04 and 1.28E+06 and 7.09E+05
- glycine level (metabolomics signal) (replicate samples): 1.74E+06 and 1.71E+06 and 1.54E+06
- N-Acyl-D-aspartate (C06380) metabolite signal [1]: 6.19E+04 and 7.22E+04 and 7.18E+04
- Poly-gamma-D-glutamate (C05723) metabolite signal [1]: 4.28E+07 and 3.89E+07 and 3.91E+07
- D-Ribitol 5-phosphate (C01068) metabolite signal [2]: 0.00E+00 and 1.62E+04 and 1.65E+04
- D-glucono-1,5-lactone (C00198) metabolite signal [2]: 1.21E+04 and 2.10E+05 and 2.85E+05
- L-Noradrenaline (C00547) metabolite signal [2]: 1.67E+04 and 1.81E+04 and 3.13E+04
- Oxalosuccinate (C05379) metabolite signal [2]: 3.74E+04 and 9.19E+04 and 1.02E+05
- Pyridoxamine (C00534) metabolite signal [2]: 1.97E+04 and 7.81E+03 and 6.44E+03
- Thioredoxin disulfide (C00343) metabolite signal [2]: 0.00E+00 and 8.04E+04 and 2.51E+04
- 1-4-beta-D-Xylan (metabolite signal) [3]: 2.44E+04 and 1.72E+05 and 1.77E+05
- 2-Hydroxyglutarate/Citramalate (C02630) metabolite signal [3]: 8.76E+03 and 5.83E+04 and 8.08E+04
- 5-6-Dihydrothymine (C00906) metabolite signal [3]: 7.42E+04 and 3.03E+05 and 2.79E+05
- 5-10-Methenyltetrahydrofolate (metabolite signal) [3]: 1.08E+05 and 1.27E+05 (2×)
- 5-Hydroxyisourate (C11821) metabolite signal [3]: 4.60E+06 and 7.03E+06 and 4.57E+06
- 5-L-Glutamyl-taurine (metabolite signal) [3]: 1.69E+05 and 1.70E+05 and 1.66E+05
- 5-Oxoproline (metabolite signal) [3]: 7.65E+04 and 8.27E+05 and 8.67E+05
- (S)(+)-Allantoin (C02350) metabolite signal [3]: 1.76E+03 and 8.43E+03 and 0.00E+00
- Allantoate (C00499) metabolite signal [3]: 5.45E+05 and 3.06E+05 and 4.74E+05
- Ascorbate (metabolite signal) [3]: 3.17E+02 and 8.49E+04 and 7.10E+04
- CMP-N-acetylneuraminate (metabolite signal) [3]: 0.00E+00 and 1.60E+04 and 3.30E+04
- Carnosine (metabolite signal) [3]: 1.68E+05 and 2.26E+05 and 1.66E+05
- Citrate (C00158) metabolite signal [3]: 1.56E+03 and 1.77E+04 and 2.42E+04
- Creatine (metabolite signal) [3]: 1.60E+08 and 1.66E+08 and 1.57E+08
- Creatinine (metabolite signal) [3]: 2.21E+06 and 2.25E+06 and 2.28E+06
- Cys-Gly (metabolite signal) [3]: 7.06E+05 and 5.27E+05 and 4.56E+05
- D-Glucosamine (metabolite signal) [3]: 2.84E+05 and 2.82E+05 and 2.01E+05
- D-Glucose (C00031) metabolite signal [3]: 3.39E+04 and 4.32E+06 and 3.64E+06
- D-Ribose (C00121) metabolite signal [3]: 1.37E+04 and 1.43E+05 and 1.11E+05
- Dehydroascorbate (metabolite signal) [3]: 0.00E+00 and 3.73E+04 and 1.82E+04
- Dihydrofolate (metabolite signal) [3]: 1.85E+06 and 9.70E+05 and 1.18E+06
- Dimethylglycine (metabolite signal) [3]: 7.46E+05 and 8.20E+05 and 5.98E+05
- Diphosphate (C00013) metabolite signal [3]: 0.00E+00 and 2.99E+04 and 2.16E+04
- Fumarate (C00122) metabolite signal [3]: 3.34E+03 and 7.81E+04 and 1.06E+05
- Glutathione (C00051) metabolite signal [3]: 4.14E+07 and 3.33E+07 and 3.37E+07
- Glutathione disulfide (metabolite signal) [3]: 0.00E+00 and 1.62E+05 and 3.64E+05
- Hypoxanthine (C00262) metabolite signal [3]: 7.62E+03 and 4.26E+03 and 3.54E+03
- IMP (C00130) metabolite signal [3]: 1.27E+04 and 8.26E+04 and 5.76E+04
- Inosine (C00294) metabolite signal [3]: 1.21E+03 and 4.59E+04 and 5.50E+04
- L-Citrulline (metabolite signal) [3]: 2.43E+06 and 3.35E+06 and 2.92E+06
- L-Homoserine (metabolite signal) [3]: 1.60E+04 and 2.75E+05 and 2.50E+05
- Lactate (C01432) metabolite signal [3]: 9.68E+05 and 1.69E+07 and 1.76E+07
- Malate (C00149) metabolite signal [3]: 3.14E+03 and 1.07E+05 and 1.56E+05
- Mannitol (C00392) metabolite signal [3]: 6.48E+03 and 1.86E+05 and 1.78E+05
- N-Acetylneuraminate (metabolite signal) [3]: 0.00E+00 and 1.33E+04 and 1.50E+04
- N-Glycoloyl-neuraminate (metabolite signal) [3]: 0.00E+00 and 1.02E+05 and 7.37E+04
- NAD+ (C00003) metabolite signal [3]: 5.65E+04 and 4.00E+04 and 9.30E+04
- Nicotinamide (C00153) metabolite signal [3]: 2.54E+07 and 3.18E+07 and 2.67E+07
- Ornithine (metabolite signal) [3]: 1.63E+06 and 1.68E+06 and 1.77E+06
- Oxaloacetate (C00036) metabolite signal [3]: 1.48E+03 and 3.44E+04 and 3.60E+04
- Phosphoserine (metabolite signal) [3]: 5.41E+04 and 5.91E+04 and 2.74E+04
- Putrescine (metabolite signal) [3]: 3.78E+04 and 4.55E+04 and 4.46E+04
- Pyridoxal (C00250) metabolite signal [3]: 3.76E+04 and 4.39E+04 and 5.36E+04
- Pyruvate (C00022) metabolite signal [3]: 8.68E+04 and 2.04E+06 and 2.17E+06
- S-Glutathionyl-L-cysteine (metabolite signal) [3]: 0.00E+00 and 1.18E+05 and 1.30E+05
- Sedoheptulose 1-phosphate (C06222) metabolite signal [3]: 0.00E+00 and 1.66E+04 and 1.92E+04
- Spermidine (metabolite signal) [3]: 6.37E+06 and 6.43E+06 and 6.27E+06
- Spermine (metabolite signal) [3]: 8.12E+06 and 8.01E+06 and 7.75E+06
- Succinate (C00042) metabolite signal [3]: 1.40E+04 and 6.55E+04 and 4.55E+04
- Thymidine (C00214) metabolite signal [3]: 4.03E+04 and 7.72E+03 and 7.98E+03
- UDP (C00015) metabolite signal [3]: 0.00E+00 and 1.32E+05 and 7.27E+04
- UDP-N-acetyl-D-glucosamine (metabolite signal) [3]: 0.00E+00 and 6.00E+03 and 1.01E+04
- UDP-glucose (C00029) metabolite signal [3]: 0.00E+00 and 8.80E+03 and 1.03E+04
- Urate (C00366) metabolite signal [3]: 1.39E+04 and 2.30E+04 and 2.01E+04
- Xanthine (C00385) metabolite signal [3]: 8.29E+04 and 9.81E+04 and 9.24E+04
- alpha-D-Glucosamine 1-phosphate (metabolite signal) [3]: 8.54E+05 and 1.67E+06 and 1.26E+06
- alpha-D-Ribose 1-phosphate (C00620) metabolite signal [3]: 0.00E+00 and 2.89E+04 and 3.75E+04
- gamma-Glutamyl-gamma-aminobutyrate (metabolite signal) [3]: 5.89E+04 and 6.64E+04 and 6.00E+04
- gamma-L-Glutamyl-D-alanine (metabolite signal) [3]: 3.86E+02 and 3.06E+04 and 3.37E+04
- gamma-L-Glutamyl-L-cysteine (metabolite signal) [3]: 4.08E+03 and 2.68E+04 and 3.24E+04
